The record followed here is patent US20090054376A1, “BENZOFURAN DERIVATIVES WITH THERAPEUTIC ACTIVITIES” (Pharmos Corporation, priority 2005, published 2009).

One assay has as its target T1, Human CB1 Receptor (Homo sapiens, UniProt P21554).
T1 construct: expressed in transfected cells; host or cells: HEK-293 cells (membranes)
Kind of assay: [35S]GTPγS-binding assay, hCB1. It is filed as biochemical. The conditions noted are these: NB = no binding; for Emax: upper plateau of curve. As to the method: (§1) Functional activity of compounds of the invention toward the cannabinoid receptors was determined by stimulation of [^35S]-GTPγS binding using membranes from HEK-293 cells expressing the hCB1 receptor and membranes expressing the hCB2 receptor derived from either Sf9 (PerkinElmer) or from HEK-293 cells. Activities were compared to that of the known cannabinoid full agonist CP55940 (Alexis). The purpose of this experiment is to determine the potency of the compounds of the invention as agonists or antagonists toward each of the receptor tested.
(§2) [^35S]-GTPγS binding reactions were performed at 30° C. in 96-well plates containing 5-10 μg membrane protein suspended in 0.1 ml binding buffer [20 mM HEPES-NaOH, pH 7.4, 5 mM MgCl2, 100 mM NaCl, 0.2% (w/v) bovine serum albumin] supplemented with 50 μM GDP and 0.06 nM-10 μM of the compound being tested. Binding was initiated by the addition of [^35S]GTPγS (0.3 nM final concentration). Incubations were performed for 90 minutes and were terminated by filtration on GF/C filter plates (PerkinEimer). Filters were washed ten times with ice-cold wash buffer (20 mM HEPES-NaOH, pH 7.4, 10 mM sodium pyrophosphate). Non-specific binding was measured in the presence of 15 μM GTPγS.
(§3) Assays were performed in duplicates. Data was analyzed by plotting on the X axis the log concentration against percent of specific [^35S]GTPγS binding out of basal [^35S]GTPγS binding on the Y axis, non-linear regression is then performed using GraphPad Prism, version 3.0 (GraphPad, San Diego, Calif.) to calculate the EC50 and Emax of the compound. The EC50 value represents the concentration at which there is 50% [^35S]GTPγS binding and the Emax value the upper plateau of the curve.
(In general: GTPγS is a poorly hydrolysed GTP analogue; its binding reports G protein activation.)

The target in the next assay is T2, Human CB2 Receptor (Homo sapiens, UniProt P34972).
T2 construct: host or cells: Sf9 or HEK-293 cells (membranes)
Kind of assay: [35S]GTPγS-binding assay, hCB2. The assay is classed as biochemical. The conditions noted are these: for EC50 / Emax / agonistic activity toward cannabinoid receptors (in words): GTPγS; for EC50 / Emax: Human CB2 Receptor, NB = no binding; for Emax: upper plateau of curve; for selectivity toward CB2: GTPγS agonism, CB2 versus CB1; for agonistic activity toward cannabinoid receptors (in words): hCB1 and hCB2. As to the method:
as §1, §2, §3

Assay [1] relates to visceral pain writhing responses. Nature of the assay: Visceral pain, acetic acid induced writhing responses. The assay is classed as in vivo, Male ICR mice. The conditions noted are these: Mus musculus, iv, single dose 2 mg/kg i.v., compared to untreated group; read-out: Percent Inhibition of Visceral Pain Writhing Responses. As to the method: Male ICR mice (average body weight 25 g, Harlan, Israel) were pretreated by i.v. injection at volume dose of 5 ml/kg of vehicle, control and test compounds at various doses. Other routes of administration were tested for selected compounds including i.m. or s.c. injections at volume dose of 2.5 ml/kg and p.o. gavage at volume dose of 5 ml/kg. Compounds were dissolved in CREMOPHOR®:Ethanol and diluted 1:20 in saline prior to injection or gavage. Compounds administered i.v. were injected fifteen minutes before pain induction, whereas compounds administered i.m., s.c. or p.o. were supplied thirty minutes before pain induction, unless otherwise indicated. Each treatment group, except for controls comprising at least 30 animals, was composed of at least 6 animals. Fifteen or thirty minutes after drug administration, depending on the route of administration, the mice were injected i.p. with 10 ml/kg of 0.6% acetic acid and the number of visceral pain related behaviors (writhing movements globally defined as WR, i.e. stretching, contractions of the abdomen accompanied by an elongation of the body and extension of the hind limbs) was counted over a period of 5 minutes, starting 5 minutes after the acetic acid administration. These visceral pain related behaviors were globally defined as writhing responses (WR). The results are expressed as mean number of writhing responses ±SEM. Data were analyzed using analysis of variance (ANOVA) followed by post-hoc Fisher test.

The structures appear in SMILES notation.

T1 sequence (P21554 whole entry): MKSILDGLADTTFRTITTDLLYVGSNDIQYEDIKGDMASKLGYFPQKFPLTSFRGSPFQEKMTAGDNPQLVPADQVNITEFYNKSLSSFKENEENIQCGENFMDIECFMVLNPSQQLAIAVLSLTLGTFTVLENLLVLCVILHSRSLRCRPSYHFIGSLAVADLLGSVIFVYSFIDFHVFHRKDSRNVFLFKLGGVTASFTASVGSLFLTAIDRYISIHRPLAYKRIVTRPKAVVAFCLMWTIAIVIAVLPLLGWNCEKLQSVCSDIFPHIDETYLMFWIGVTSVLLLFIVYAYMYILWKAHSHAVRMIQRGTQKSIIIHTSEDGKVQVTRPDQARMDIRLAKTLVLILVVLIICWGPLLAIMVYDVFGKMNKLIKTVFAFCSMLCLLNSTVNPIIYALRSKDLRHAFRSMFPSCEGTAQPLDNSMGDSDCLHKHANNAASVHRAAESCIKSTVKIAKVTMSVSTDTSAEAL
T2 sequence (P34972 whole entry): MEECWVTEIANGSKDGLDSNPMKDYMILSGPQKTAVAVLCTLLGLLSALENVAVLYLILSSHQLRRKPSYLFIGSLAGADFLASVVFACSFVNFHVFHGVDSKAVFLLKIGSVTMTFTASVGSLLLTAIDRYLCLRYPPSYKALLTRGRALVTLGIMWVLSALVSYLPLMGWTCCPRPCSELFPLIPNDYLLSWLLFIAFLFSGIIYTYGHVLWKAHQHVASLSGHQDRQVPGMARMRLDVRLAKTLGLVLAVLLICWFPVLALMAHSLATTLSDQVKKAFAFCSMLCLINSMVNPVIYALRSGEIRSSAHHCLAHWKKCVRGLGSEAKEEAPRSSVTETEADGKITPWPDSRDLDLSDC

In general, EC50 refers to the concentration giving half of the maximal effect. A word on the Emax: it is the maximal effect, on the per cent scale that the assay sets. Turning to `CCCCCCC(C)(C)c1cc(OC(=O)C=CC(=O)O)c2c(c1)OC1CCCCCC21` (stereo not drawn) [Compound C7S-9, But-2-enedioic acid mono-[2-(1,1-dimethylheptyl)-5,6,7,8,9,9a-hexahydro-4bH-10-oxa-benzo[α]azulen-4-yl]ester], the EC50 at Human CB1 Receptor was above 10000 nM. At Human CB2 Receptor, this molecule had a concentration for a half-maximal effect (EC50) of 712 nM and an Emax of 52%. Moreover, in assay [1], the inhibition in vivo at 2 mg/kg turned out to be 26%.
Turning to `CCCCCCC(C)(C)c1cc(O)c2c(c1)OC1C(O)CCCCC21` (single isomer, unassigned) [Compound C7S-29, 2-(,1-dimethylheptyl)-5,6,7,8,9,9a-hexahydro-4bH-10-oxa-benzo[α]azulen-4,9-diol], on Human CB1 Receptor, a half-maximal response (EC50) required 79 nM and the maximum response (Emax) worked out at 41%. At Human CB2 Receptor, the “selectivity toward CB2” value is “non-selective agonist”, the 50% effective concentration (EC50) was found to be 54 nM, the Emax came out at 60% and the “agonistic activity toward cannabinoid receptors (in words)” value is recorded as “agonists toward both receptors with some degree of selectivity toward the CB2 receptor”. The inhibition in vivo at 2 mg/kg in assay [1] was above 90%.
On to `CCCCCCC(C)(C)c1cc(OC(=O)C=CC(=O)O)c2c(c1)OC1C(I)CCCCC21` (stereo not drawn) [Compound C7S-28, But-2-enedioic acid mono-[2-(1,1-dimethylheptyl)-9-iodo-5,6,7,8,9,9a-hexahydro-4bH-10-oxa-benzo[α]azulen-4-yl]ester], for which, on Human CB1 Receptor, the EC50 was found to be 217 nM and the Emax is 118%. In addition, at Human CB2 Receptor, the “selectivity toward CB2” value was “about 10 fold”, the 50% effective concentration (EC50) was found to be 16 nM, the Emax turned out to be 44% and the “agonistic activity toward cannabinoid receptors (in words)” value is given as “agonists toward both receptors with some degree of selectivity toward the CB2 receptor”. The inhibition in vivo at 2 mg/kg in assay [1] was 56%.
At Human CB1 Receptor, `CCCCCCC(C)(C)c1cc(O)c2c(c1)OC1C(I)CCCCC21` (stereo not drawn) [Compound C7S-26, 2-(1,1-Dimethylheptyl)-9-iodo-5,6,7,8,9,9a-hexahydro-4bH-10-oxa-benzo[α]azulen-4-ol] displayed a 50% effective concentration (EC50) of 20 nM and an Emax of 155%. Moreover, at Human CB2 Receptor, the “selectivity toward CB2” value is reported as “about 285 fold”, the response was half-maximal at 0.07 nM (EC50), the maximum response (Emax) amounted to 38% and the “agonistic activity toward cannabinoid receptors (in words)” value is recorded as “agonists toward both receptors with some degree of selectivity toward the CB2 receptor”. Further, the inhibition in vivo at 2 mg/kg in assay [1] was 26%.
